Data: PubChem BioAssay AID248 (DTP/NCI, 2004)
Inconclusive results and toxic doses are left out. Rule as the data show it: active = T/C of 150% or more; inactive = T/C below 125%.

Tested on: L1210 leukemia ip in BDF1 mice, survival T/C
Assay: NCI In Vivo Anticancer Drug Screen. Data for tumor model L1210 Leukemia (intraperitoneal) in B6D2F1 (BDF1) mice
Conditions: endpoint: mean survival time, higher = longer survival
Method in brief: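 Each compound was tested against a transplantable tumor grown in mice. The endpoint was survival, with treated animals benchmarked against vehicle controls as a simple ratio.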

[1] = dose: 100.0 mg/kg/injection, schedule: Q01DX001 (ip), vehicle: saline
[2] = dose: 200.0 mg/kg/injection, schedule: Q01DX001 (ip), vehicle: saline
[3] = dose: 400.0 mg/kg/injection, schedule: Q01DX001 (ip), vehicle: saline
[4] = dose: 100.0 mg/kg/injection, schedule: Q04DX003 (ip), vehicle: Klucel (hydroxypropylcellulose) (HPC)
[5] = dose: 200.0 mg/kg/injection, schedule: Q04DX003 (ip), vehicle: Klucel (hydroxypropylcellulose) (HPC)
[6] = dose: 400.0 mg/kg/injection, schedule: Q04DX003 (ip), vehicle: Klucel (hydroxypropylcellulose) (HPC)
[7] = dose: 100.0 mg/kg/injection, schedule: Q04DX003 (ip), vehicle: saline with Tween-80
[8] = dose: 200.0 mg/kg/injection, schedule: Q04DX003 (ip), vehicle: saline with Tween-80
[9] = dose: 100.0 mg/kg/injection, schedule: Q01DX009 (ip), vehicle: Klucel (hydroxypropylcellulose) (HPC)
[10] = dose: 200.0 mg/kg/injection, schedule: Q01DX009 (ip), vehicle: Klucel (hydroxypropylcellulose) (HPC)

Measured: T/C

NCC(=O)Nc1ccc(S(=O)(=O)c2ccc(NC(=O)CN)cc2)cc1
inactive: [1] 104 % of control | [2] 101 % of control | [3] 98 % of control

N#[N+]c1nc2ncnc(N)c2[nH]1
inactive: dose: 12.5 mg/kg/injection, schedule: Q01DX Z (ip), vehicle: saline 107 % of control | dose: 25.0 mg/kg/injection, schedule: Q01DX Z (ip), vehicle: saline 114 % of control

CC(C)C(=Nc1ccc(Cl)c(Cl)c1)N(C)C
inactive: dose: 44.0 mg/kg/injection, schedule: Q01DX Z (ip), vehicle: methylcellulose (MC) 95 % of control | dose: 66.0 mg/kg/injection, schedule: Q01DX Z (ip), vehicle: methylcellulose (MC) 102 % of control

CCCCOCCOP(=O)(OCCOCCCC)OCCOCCCC
inactive: [4] 98 % of control | [5] 98 % of control | [6] 101 % of control

CC(=O)c1ccc(Oc2ccc(C(C)=O)cc2)cc1
inactive: dose: 50.0 mg/kg/injection, schedule: Q01DX001 (ip), vehicle: carboxymethylcellulose (CMC) 103 % of control | dose: 100.0 mg/kg/injection, schedule: Q01DX001 (ip), vehicle: carboxymethylcellulose (CMC) 105 % of control | dose: 100.0 mg/kg/injection, schedule: Q04DX002 (ip), vehicle: Klucel (hydroxypropylcellulose) (HPC) 106 % of control | dose: 200.0 mg/kg/injection, schedule: Q01DX001 (ip), vehicle: carboxymethylcellulose (CMC) 92 % of control | dose: 200.0 mg/kg/injection, schedule: Q04DX002 (ip), vehicle: Klucel (hydroxypropylcellulose) (HPC) 102 % of control | dose: 400.0 mg/kg/injection, schedule: Q01DX001 (ip), vehicle: carboxymethylcellulose (CMC) 92 % of control | dose: 400.0 mg/kg/injection, schedule: Q04DX002 (ip), vehicle: Klucel (hydroxypropylcellulose) (HPC) 91 % of control

C(#[C][Sn]([c]1ccccc1)([c]1ccccc1)[c]1ccccc1)c1ccccc1
inactive: dose: 25.0 mg/kg/injection, schedule: Q04DX002 (ip), vehicle: Klucel (hydroxypropylcellulose) (HPC) 97 % of control | dose: 50.0 mg/kg/injection, schedule: Q04DX002 (ip), vehicle: Klucel (hydroxypropylcellulose) (HPC) 90 % of control

Clc1ccc(CSc2ncnc3nc[nH]c23)cc1Cl
inactive: [7] 93 % of control | [8] 94 % of control | dose: 400.0 mg/kg/injection, schedule: Q04DX003 (ip), vehicle: saline with Tween-80 104 % of control

Cc1[nH]c(N)nc(=S)c1CCCOc1ccc([N+](=O)[O-])cc1
inactive: dose: 50.0 mg/kg/injection, schedule: Q01DX009 (ip), vehicle: Klucel (hydroxypropylcellulose) (HPC) 112 % of control | [9] 96 % of control | [10] 102 % of control

OCc1ccc[n+](CCc2c[nH]c3ccccc23)c1
inactive: [7] 97 % of control | [8] 103 % of control

O=C(O)C1CC=CCC1C(=O)NC(O)C(Cl)(Cl)Cl (configuration not stated)
inactive: [1] 96 % of control | dose: 100.0 mg/kg/injection, schedule: Q01DX009 (ip), vehicle: saline 103 % of control | dose: 100.0 mg/kg/injection, schedule: Q04DX003 (ip), vehicle: acetone 93 % of control | [2] 100 % of control | dose: 200.0 mg/kg/injection, schedule: Q01DX009 (ip), vehicle: saline 102 % of control | dose: 200.0 mg/kg/injection, schedule: Q04DX003 (ip), vehicle: acetone 98 % of control | [3] 95 % of control | dose: 400.0 mg/kg/injection, schedule: Q01DX009 (ip), vehicle: saline 100 % of control | dose: 400.0 mg/kg/injection, schedule: Q04DX003 (ip), vehicle: acetone 97 % of control

Cc1ccc(NC(=O)Nc2cccc(Cl)c2)cc1C
inactive: [9] 96 % of control | [4] 90 % of control | [10] 98 % of control | [5] 92 % of control | dose: 400.0 mg/kg/injection, schedule: Q01DX009 (ip), vehicle: Klucel (hydroxypropylcellulose) (HPC) 95 % of control | [6] 92 % of control
